Measured values from patent US20090060861A1, “Stabilized Polypeptide Formulations” (NOVO Nordisk A/S, priority 2005, published 2009).
Like-named read-outs stand apart in the source and are kept apart here.

How the values were obtained:
[1] = biological target: T1, insulin aspart (Asp^B28 human insulin) (Homo sapiens, UniProt P01308, P52D); conditions: pH 7.4
Procedure: Compositions comprising the buffer components covered by the present invention were prepared according to the above-mentioned and a reference composition containing 7 mM sodium phosphate as buffer component was prepared in parallel.

[2] = biological target: human insulin (Homo sapiens, UniProt P01308)
[3] = biological target: T1, insulin aspart (Asp^B28 human insulin); experiment: Chemical stability of the polypeptide, degradation products formed during storage; conditions: insulin aspart compositions, 1-100 mM buffer; 3 months storage at 5° C. or 37° C.; data not shown
[4] = biological target: T1, insulin aspart (Asp^B28 human insulin)
[5] = insulin aspart 600 nmol/mL, 1-100 mM buffer, 37° C., shake 1200 rpm, n=12
[6] = human insulin, 6.7 mM buffer, n=12

T1 sequence (P01308 25-54 P52D): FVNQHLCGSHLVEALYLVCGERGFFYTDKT
T1 sequence (P01308 90-110): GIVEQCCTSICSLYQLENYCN
Sequence of human insulin (P01308 25-54 limits assumed): as the sequence (P01308 25-54 P52D) above, with D28P counted along it

Row | Compound | polypeptide stability (physical stability, ThT lag-time) compared to compositions comprising phosphate buffer (7 mM) [1] | polypeptide stability (physical stability, ThT lag-time) compared to compositions comprising phosphate buffer [2] | impact on chemical stability of the polypeptide (amount of degradation products formed) [3] | polypeptide stability (physical stability, ThT lag-time) compared to compositions comprising phosphate buffer (7 mM) [1, 5] | polypeptide stability (physical stability, ThT lag-time) compared to compositions comprising phosphate buffer [2, 6] | impact on chemical stability of the polypeptide (amount of degradation products formed) [4]
1 | Cl.NCC(N)=O [glycinamid hydrochloride] | increased | increased | No significant impact |  |  | 
2 | CCC(CC)(C(=O)O)C(=O)O [diethylmalonic acid, diethylpropanedioic acid] |  |  | No significant impact | increased | increased | 
3 | CC[N+](CC)(CC)CC.[Cl-] [T.E.A. chloride, tetraethylammonium chloride] |  |  |  | increased | increased | No significant impact
4 | CC(N)(CO)CO [AMPD, 2-amino-2-methyl-1,3-propanediol] |  |  | No significant impact | increased | increased | 
5 | O=C(O)c1ccc(C(=O)O)c(C(=O)O)c1 [trimellitic acid, 1,2,4-benzenetricarboxylic acid] |  |  | No significant impact | increased | increased | 
